≈ marks a conversion by molar mass, not a printed value. Calls of active or inactive are those of the source. The calls are words filed in the database; no cut-off is given here.
Tests used:
Escherichia coli [1] = assay: Antibacterial activity against Escherichia coli ATCC 25922 after 18 hrs by CLSI based broth microdilution method; type: functional; conditions: ATCC 25922, 18 h
Escherichia coli [2] = assay: Antibacterial activity against Escherichia coli ATCC 43837 after 18 hrs by CLSI based broth microdilution method; type: functional; conditions: ATCC 43837, 18 h
Klebsiella pneumoniae [3] = assay: Antibacterial activity against Klebsiella pneumoniae ATCC 700603 after 18 hrs by CLSI based broth microdilution method; type: functional; conditions: Klebsiella pneumoniae, 700603, 18 h
Pseudomonas aeruginosa [4] = assay: Antibacterial activity against Pseudomonas aeruginosa ATCC 27853 after 18 hrs by CLSI based broth microdilution method; type: functional; conditions: ATCC 27853, 18 h
Staphylococcus aureus [5] = assay: Antibacterial activity against Staphylococcus aureus ATCC 25923 after 18 hrs by CLSI based broth microdilution method; type: functional; conditions: ATCC 25923, 18 h
Staphylococcus aureus [6] = assay: Antibacterial activity against methicillin-resistant Staphylococcus aureus 936 after 18 hrs by CLSI based broth microdilution method; type: functional; conditions: Staphylococcus aureus, 936, 18 h
Erythrocyte = assay: Hemolytic activity in human RBC measured after 1 hr by microplate reader analysis; type: ADME, cell-based
[7] = Selectivity index, ratio of MHC10 for human RBC to geometric mean of peptide MIC for gram positive bacteria; type: toxicity; conditions: human red blood cells, read-out: Selectivity Index
[8] = Selectivity index, ratio of MHC10 for human RBC to geometric mean of peptide MIC for gram negative bacteria; type: toxicity; conditions: human red blood cells, read-out: Selectivity Index
Escherichia coli [9] = assay: Potentiation of polymyxin B-induced antibacterial activity against Escherichia coli ATCC 25922 assessed as FICI after 18 hrs by checker board assay; type: functional
Klebsiella pneumoniae [10] = assay: Potentiation of polymyxin B-induced antibacterial activity against Klebsiella pneumoniae ATCC 700603 assessed as FICI after 18 hrs by checker board assay; type: functional
Pseudomonas aeruginosa [11] = assay: Potentiation of polymyxin B-induced antibacterial activity against Pseudomonas aeruginosa ATCC 27853 assessed as FICI after 18 hrs by checker board assay; type: functional
Escherichia coli [12] = assay: Potentiation of rifampicin-induced antibacterial activity against Escherichia coli ATCC 25922 assessed as FICI after 18 hrs by checker board assay; type: functional
Klebsiella pneumoniae [13] = assay: Potentiation of rifampicin-induced antibacterial activity against Klebsiella pneumoniae ATCC 700603 assessed as FICI after 18 hrs by checker board assay; type: functional
Pseudomonas aeruginosa [14] = assay: Potentiation of rifampicin-induced antibacterial activity against Pseudomonas aeruginosa ATCC 27853 assessed as FICI after 18 hrs by checker board assay; type: functional
Escherichia coli [15] = assay: Antibacterial activity against Escherichia coli ATCC 25922 at 0.5 times MIC incubated for 18 hrs measured for 15 passages by CLSI based broth microdilution method; type: functional, organism-based
Escherichia coli [16] = assay: Antibiofilm activity against Escherichia coli ATCC 25922 after 24 hrs by crystal violet staining based assay; type: functional, organism-based
Staphylococcus aureus [17] = assay: Antibiofilm activity against Staphylococcus aureus ATCC 25923 after 24 hrs by crystal violet staining based assay; type: functional, organism-based
Pseudomonas aeruginosa [18] = assay: Antibiofilm activity against Pseudomonas aeruginosa ATCC 27853 after 24 hrs by crystal violet staining based assay; type: functional, organism-based
Pseudomonas aeruginosa [19] = assay: Antibiofilm activity against Pseudomonas aeruginosa ATCC 27853 at 0.25 to 2 times of MIC after 24 hrs by crystal violet staining based assay; type: functional, organism-based
Escherichia coli [20] = assay: Antimicrobial activity against Escherichia coli ATCC 25922 at 1 mM preincubated for 6 hrs in presence of 2000 ug/ml trypsin and measured after 18 hrs by microplate reader analysis; type: functional, organism-based
Escherichia coli [21] = assay: Antimicrobial activity against Escherichia coli ATCC 25922 at 1 mM preincubated for 6 hrs in presence of 2 ug/ml chymotrypsin and measured after 18 hrs by microplate reader analysis; type: functional, organism-based
Escherichia coli [22] = assay: Ratio of MIC for Escherichia coli ATCC 25922 preincubated for 1 hr in presence of 10% mouse serum and measured after 18 hrs to MIC for antibacterial activity against Escherichia coli ATCC 25922 after 18 hrs; type: functional
Escherichia coli [23] = assay: Induction of outer membrane permeabilization in Escherichia coli ATCC 25922 measured up to 12 mins by NPN-dye based assay; type: organism-based
Escherichia coli [24] = assay: Induction of inner membrane permeabilization in Escherichia coli ATCC 43837 assessed as increase in ONPG release at 4 times of MIC by ONPG dye based assay; type: organism-based
Escherichia coli [25] = assay: Disruption of membrane integrity in Escherichia coli ATCC 25922 assessed as membrane damage by measuring PI fluorescence at 4 times of MIC incubated for 1 hr by PI dye based flow cytometric analysis (reference value: 1.35%); type: functional
Escherichia coli [26] = assay: Disruption of membrane integrity in Escherichia coli ATCC 25922 assessed as membrane damage by measuring PI fluorescence at 2 times of MIC incubated for 1 hr by PI dye based flow cytometric analysis (reference value: 1.35%); type: functional
Escherichia coli [27] = assay: Induction of membrane disruption in Escherichia coli ATCC 25922 assessed as rough membrane surface at 4 times of MIC after 2 hrs by SEM analysis; type: functional, organism-based
Escherichia coli [28] = assay: Induction of membrane disruption in Escherichia coli ATCC 25922 assessed as corrugated membrane surface at 4 times of MIC after 2 hrs by SEM analysis; type: functional, organism-based
Escherichia coli [29] = assay: Induction of membrane disruption in Escherichia coli ATCC 25922 assessed as degeneration in membrane at 4 times of MIC after 2 hrs by SEM analysis; type: functional, organism-based
DNA = assay: Binding affinity to Escherichia coli ATCC 25922 genomic DNA after 30 mins by agarose gel electrophoresis; type: nucleic-acid assay
Escherichia coli [30] = assay: Ratio of antibacterial activity against Escherichia coli ATCC 25922 in presence of NaCl to antibacterial activity against Escherichia coli ATCC 25922; type: functional
Escherichia coli [31] = assay: Ratio of antibacterial activity against Escherichia coli ATCC 25922 in presence of KCl to antibacterial activity against Escherichia coli ATCC 25922; type: functional
Escherichia coli [32] = assay: Ratio of antibacterial activity against Escherichia coli ATCC 25922 in presence of MgCl2 to antibacterial activity against Escherichia coli ATCC 25922; type: functional
Escherichia coli [33] = assay: Ratio of antibacterial activity against Escherichia coli ATCC 25922 in presence of FeCl3 to antibacterial activity against Escherichia coli ATCC 25922; type: functional
Staphylococcus aureus [34] = assay: Ratio of antibacterial activity against Staphylococcus aureus ATCC 25923 in presence of NaCl to antibacterial activity against Staphylococcus aureus ATCC 25923; type: functional
Staphylococcus aureus [35] = assay: Ratio of antibacterial activity against Staphylococcus aureus ATCC 25923 in presence of KCl to antibacterial activity against Staphylococcus aureus ATCC 25923; type: functional
Staphylococcus aureus [36] = assay: Ratio of antibacterial activity against Staphylococcus aureus ATCC 25923 in presence of FeCl3 to antibacterial activity against Staphylococcus aureus ATCC 25923; type: functional
Escherichia coli [37] = assay: Induction of membrane disruption in Escherichia coli ATCC 25922 assessed as fracture in membrane at 4 times of MIC after 2 hrs by SEM analysis; type: functional, organism-based
Escherichia coli [38] = assay: Induction of inner membrane permeabilization in Escherichia coli ATCC 43837 assessed as increase in ONPG release at 1 to 2 times of MIC by ONPG dye based assay; type: organism-based

Structure (SMILES) | MIC (Escherichia coli [1]) [µM] | MIC (Escherichia coli [2]) [µM] | MIC (Klebsiella pneumoniae [3]) [µM] | MIC (Pseudomonas aeruginosa [4]) [µM] | MIC (Staphylococcus aureus [5]) [µM] | MIC (Staphylococcus aureus [6]) [µM] | MHC10 (Erythrocyte) [µM] | selectivity ratio [7] | selectivity ratio [8] | fractional inhibitory concentration index (FICI) (Escherichia coli [9]) | fractional inhibitory concentration index (FICI) (Klebsiella pneumoniae [10]) | fractional inhibitory concentration index (FICI) (Pseudomonas aeruginosa [11]) | fractional inhibitory concentration index (FICI) (Escherichia coli [12]) | fractional inhibitory concentration index (FICI) (Klebsiella pneumoniae [13]) | fractional inhibitory concentration index (FICI) (Pseudomonas aeruginosa [14]) | Activity (Escherichia coli [15]) | inhibition (Escherichia coli [16]) | inhibition (Staphylococcus aureus [17]) | inhibition (Pseudomonas aeruginosa [18]) | Activity (Escherichia coli [20]) | other results
CCCCCCCC(=O)NCC(=O)N[C@@H](CC(C)C)C(=O)N[C@@H](CC(C)C)C(=O)N[C@H](CCCCN)C(=O)N[C@@H](CCCNC(=N)N)C(=O)N[C@H](C(=O)N[C@H](CCCCN)C(=O)N[C@H](C(=O)N[C@@H](CC(C)C)C(=O)N[C@@H](CC(C)C)C(N)=O)[C@@H](C)O)[C@@H](C)CC | 64 (≈ 81.9 µg/mL) | 32 (≈ 41 µg/mL) | 64 (≈ 81.9 µg/mL) | 8 (≈ 10.2 µg/mL) | 32 (≈ 41 µg/mL) | 64 (≈ 81.9 µg/mL) | > 256 | 15.4 | 12.2 | 0.1875 | 0.0625 | 0.1875 | 0.0625 | 0.0625 | 0.75 | Active | Dose-dependent effect | Dose-dependent effect | Dose-dependent effect | Active | inhibition (Pseudomonas aeruginosa [19]): Active; Activity (Escherichia coli [21]): Active; Ratio (Escherichia coli [22]): 1; Activity (Escherichia coli [23]): Dose-dependent effect; Activity (Escherichia coli [24]): Active; Activity (Escherichia coli [25]): 70.8%; Activity (Escherichia coli [26]): 64.6%; Activity (Escherichia coli [27]): Active; Activity (Escherichia coli [28]): Active; Activity (Escherichia coli [29]): Active; Activity (DNA): Dose-dependent effect; Ratio (Escherichia coli [30]): 2 - 4; Ratio (Escherichia coli [31]): 2 - 4; Ratio (Escherichia coli [32]): 2 - 4; Ratio (Escherichia coli [33]): 2 - 4; Ratio (Staphylococcus aureus [34]): 2 - 4; Ratio (Staphylococcus aureus [35]): 2 - 4; Ratio (Staphylococcus aureus [36]): 2 - 4; Activity (Escherichia coli [37]): Active
CCCCCCCCCC(=O)NCC(=O)N[C@@H](CC(C)C)C(=O)N[C@@H](CC(C)C)C(=O)N[C@H](CCCCN)C(=O)N[C@@H](CCCNC(=N)N)C(=O)N[C@H](C(=O)N[C@H](CCCCN)C(=O)N[C@H](C(=O)N[C@@H](CC(C)C)C(=O)N[C@@H](CC(C)C)C(N)=O)[C@@H](C)O)[C@@H](C)CC | 16 (≈ 20.9 µg/mL) | 8 (≈ 10.5 µg/mL) | 16 (≈ 20.9 µg/mL) | 8 (≈ 10.5 µg/mL) | 8 (≈ 10.5 µg/mL) | 8 (≈ 10.5 µg/mL) | 64 | 8 | 5.33 | 0.3125 | 0.3125 | 0.125 | 0.1875 | 0.3125 | 0.3125 | Active | Dose-dependent effect | Dose-dependent effect | Dose-dependent effect | Active | Activity (Escherichia coli [21]): Active; Ratio (Escherichia coli [22]): 1; Activity (Escherichia coli [23]): Dose-dependent effect; Activity (Escherichia coli [24]): Active; Activity (Escherichia coli [25]): 75.9%; Activity (Escherichia coli [26]): 49.6%; Activity (Escherichia coli [27]): Active; Activity (Escherichia coli [28]): Active; Activity (Escherichia coli [29]): Active; Activity (DNA): Dose-dependent effect; Ratio (Escherichia coli [30]): 2 - 4; Ratio (Escherichia coli [31]): 2 - 4; Ratio (Escherichia coli [32]): 2 - 4; Ratio (Escherichia coli [33]): 2 - 4; Ratio (Staphylococcus aureus [34]): 2 - 4; Ratio (Staphylococcus aureus [35]): 2 - 4; Ratio (Staphylococcus aureus [36]): 2 - 4; Activity (Escherichia coli [37]): Active
CCCCCCCCCCCC(=O)NCC(=O)N[C@@H](CC(C)C)C(=O)N[C@@H](CC(C)C)C(=O)N[C@H](CCCCN)C(=O)N[C@@H](CCCNC(=N)N)C(=O)N[C@H](C(=O)N[C@H](CCCCN)C(=O)N[C@H](C(=O)N[C@@H](CC(C)C)C(=O)N[C@@H](CC(C)C)C(N)=O)[C@@H](C)O)[C@@H](C)CC | 16 (≈ 21.4 µg/mL) | 16 (≈ 21.4 µg/mL) | 8 (≈ 10.7 µg/mL) | 16 (≈ 21.4 µg/mL) | 4 (≈ 5.34 µg/mL) | 16 (≈ 21.4 µg/mL) | 16 | 2.18 | 1.14 | 0.1875 | 0.3125 | 0.1875 | 0.5625 | 0.5625 | 0.3125 | Active | Dose-dependent effect | Dose-dependent effect | Dose-dependent effect | Active | Activity (Escherichia coli [21]): Active; Ratio (Escherichia coli [22]): 1; Activity (Escherichia coli [23]): Dose-dependent effect; Activity (Escherichia coli [24]): Active; Activity (Escherichia coli [38]): Active; Activity (Escherichia coli [25]): 94.7%; Activity (Escherichia coli [26]): 60.8%; Activity (Escherichia coli [27]): Active; Activity (Escherichia coli [28]): Active; Activity (Escherichia coli [29]): Active; Activity (DNA): Dose-dependent effect; Ratio (Escherichia coli [30]): 2 - 4; Ratio (Escherichia coli [31]): 2 - 4; Ratio (Escherichia coli [32]): 2 - 4; Ratio (Escherichia coli [33]): 2 - 4; Ratio (Staphylococcus aureus [34]): 2 - 4; Ratio (Staphylococcus aureus [35]): 2 - 4; Ratio (Staphylococcus aureus [36]): 2 - 4; Activity (Escherichia coli [37]): Active

Source: ChEMBL document CHEMBL4359906, “Design and synthesis of new N-terminal fatty acid modified-antimicrobial peptide analogues with potent in vitro biological activity” (Eur J Med Chem, 2019)
